# US10842793B2, “Inhibitors of the unconventional secretion of fibroblast growth factor 2 (FGF2) by tumor cells and uses thereof” (Universität Heidelberg, priority 2016, dated 2020)
# Entries after “also recorded” stand apart in the source; their conditions may differ.
# Test system: CHO cells stably expressing FGF2-GFP
# Assay: FGF2-GFP secretion by cell surface biotinylation
# Assay type: cell-based
# Details: 10, 25 and 50 μM; mock 0.5% DMSO = 100%
# Description: A stable CHO cell line expressing an FGF2-GFP fusion protein in a doxycycline-dependent manner was used to quantify FGF2 transport to cell surfaces in the absence and presence of the small molecule inhibitors introduced in FIGS. 4, 5, 6 and 7. As detailed in Experimental Procedures, following cultivation of cells in the presence of compounds as indicated and induction of FGF2-GFP expression, proteins localized to the cell surface were biotinylated with a membrane-impermeable reagent. Following quenching of the biotinylation reagent, biotinylated proteins were purified using streptavidin beads. Following SDS-PAGE analyzing both the total lysate (input termed “cells”; 1.7%) and the biotinylated cell surface fraction (33%), a Western analysis was conducted to detect the secreted population of FGF2-GFP. Using appropriate fluorescent secondary antibodies, both FGF2-GFP and GAPDH (used as a control protein restricted to the intracellular space) were quantified using the LI-COR Odyssey imaging platform. FGF2-GFP secretion quantified under mock conditions (0.5% DMSO) was defined as 100% secretion efficiency. Standard deviations are shown from three independent experiments, each of which was conducted in two technical replicates. A two-tailed and unpaired T-test was conducted to assess statistical significance (* p<0.05, ** p<0.01, *** p<0.001, **** p<0.0001). “NS” indicates absence of significant differences.
# Secreted FGF2 remains bound to heparan sulfates on cell surfaces without release into cell culture supernatants. This allows for biochemical detection of the secreted population based upon cell surface biotinylation experiments. CHO cells stably expressing FGF2-GFP in a doxycycline-dependent manner were cultivated in the presence of compounds #6, #14, #21, #18 and #19 (see FIGS. 4 and 5) at 10 μM, 25 μM and 50 μM in 0.5% DMSO (final concentration) as well as under mock conditions. […] Using appropriate fluorescent secondary antibodies, FGF2-GFP and GAPDH were quantified using the LI-COR Odyssey imaging platform. […]
row,Compound,inhibition of FGF2 secretion from cells
1,COC(=O)c1c(C)[nH]c(C(=O)OCc2cc(=O)n3c(C)cccc3n2)c1C [compound #6],inhibition was observed in a dose-dependent manner
2,CC(=O)c1c(C)[nH]c(C(=O)OCc2cc(=O)n3cc(Br)ccc3n2)c1C [compound #14],inhibition was observed in a dose-dependent manner
3,CC(=O)c1c(C)[nH]c(C(=O)CSc2nc3cc(Cl)cnc3[nH]2)c1C [compound #21],inhibition was stronger at 10 μM compared to higher concentrations; also recorded: robust inhibition at 10 μM and somewhat less efficient inhibition at 25 and 50 μM
